# Experimental data as given in patent US20260256746A1, “TRIAZOLES FOR USE IN THE TREATMENT OF OCULAR DISEASES” (MIRAMOON PHARMA, S.L., priority 2022, published 2026).
# Assays:
# rd10 mice [1] = test: In vivo efficacy in rd10 mouse model of retinitis pigmentosa, electroretinographic (ERG) analysis; conditions: for retinal function measured by ERG activity: 3 μL of 20 mM solution per eye daily for 11 days, scotopic conditions, vs untreated rd10
# Procedure: rd10 mice were treated by ocular instillation with phosphate buffered saline (PBS) containing the compounds of the invention (1, 35, 50, 56 and 70) for 11 days (from P14 to P24). Animals were dark adapted for 8 hours at P25 and full-field flash electroretinographic (ERG) responses were recorded with the retina illuminated with a LED-driven Ganzfeld dome. A series of light flashes of increasing intensity, from 0.001 to 10 cd s/m^2, were averaged both in scotopic (dark-adapted) and photopic (light adapted) conditions. Photopic cone responses were recorded following 5 min of light adaptation with a background white light (30 cd/m^2). Light intensity was controlled for each animal group (Mavo-Monitor USB, Gossen, Germany). The stimulation protocols were designed according to the International Society for Clinical Electrophysiology of Vision. Briefly, mice were anesthetized with intraperitoneal administration of a saline solution containing ketamine (95 mg/kg) and xylazine (5 mg/kg) and kept on a 37° C. heating pad. Ocular instillation of 1% tropicamide was applied to induce mydriasis. ERG responses were recorded from both eyes in response to a Ganzfeld stimulator under light flashes. A total of 4 to 64 consecutive stimuli were averaged, with an interval between light flashes in scotopic conditions of 10 s for dim flashes and of up to 60 s for the highest intensity for every light intensity used. For photopic conditions, a one-second interval between light flashes was used. ERG signals were amplified, and band filtered between 0.3 and 1000 Hz (CP511 AC amplifier; Grass Instruments, Quincy, MA, USA). Electrical signals were digitized at 20 kHz with a power laboratory data acquisition board (AD Instruments, Chalgrove, UK).
# ERGs were performed using an electrode fixed to a corneal lens (Burian-Allen electrode; Hansen Ophthalmic Development Laboratory, Coralville, IA, USA) and a reference electrode fixed to the mouth, with a ground electrode placed in the tail. Rod-mediated responses were recorded from light flashes ranging from 0.001 to 10 cd s/m^2 with dark-adapted mice. Mixed rod- and cone-mediated signals were recorded in response to −1.5 to 1.5 log cd s/m^2 light flashes. Oscillatory potential (OP) was isolated using 11 cd s/m^2 white flashes, with a recording frequency ranging between 100 and 10,000 Hz. For recording of cone-mediated responses, we applied light flashes ranging from 0.5 to 2 log cd s/m^2 on a rod-saturating background of 30 cd s/m^2. Amplitudes of the a-wave and b-wave were averaged, using data provided by a researcher with no information regarding the experimental condition of mice.
# Data correspond to a pool of 3 independent experiments (N=3) with 4-5 mice per experimental group. Data are expressed as mean+/−standard deviation. Unpaired t-test was used for statistical analysis.
# [2] = Retinal biodistribution by in vivo autoradiography after ocular instillation; design: species or system Sprague-Dawley rats; conditions: 5 μL/eye of 20 mM PBS solution, autoradiography at 1, 8 and 24 h
# Procedure: In order to test the bioavailability of the compounds 1, 24, 35, 53, 66 and 67 to the retina, the following species we used: mouse, rat, rabbit and swine. Animals were treated under anesthesia. In vivo autoradiography imaging was conducted at 1, 8 and 24 hours following the ocular instillation of compound [^3H]-35 (5 μL/eye) as a phosphate buffered saline (PBS) 20 mM solution under carrier added conditions (ca. 7 mBq/eye) on Sprague-Dawley rats (n=4 for each time point). After the enucleation, the eye was incubated firstly in an aqueous solution at 4% of paraformaldehyde for 4 hours, then in aqueous solution at 10% and 20% of sucrose for 2 hours each and finally in aqueous solution at 30% of sucrose for one week. All the incubations were at 4° C. The samples were fixed in OCT (optimal cutting temperature polymer) and fine 20-μm sections of eye were cut using a Leyca cryostat (Leica CM3050 S, Germany) at −24° C. The slices (20 μm thick) were disposed on glass slides (Superfrost Plus, Labolan). Autoradiography was performed in Beta Imager 2000 system (Biospace Lab, France), for 1 h on four consecutive slices of the central part of the organ where all the parts are visible (FIG. 1 A).
# rd10 mice [3] = test: Morphometric analysis of the retina (immunohistochemistry, rhodopsin and cone arrestin); format: in vivo, mouse; conditions: 3 μL of 20 mM solution per eye for 11 days; vs untreated rd10
# Procedure: A detailed morphometric analysis, based on immunohistochemistry, was performed. For this purpose, rd10 mice were treated by ocular instillation with phosphate buffered saline (PBS) containing compound 35 (3 μL of 20 mM solution per eye) for 11 days (from P14 to P24). At P25 eyeballs were enucleated and fixed with 4% paraformaldehyde (in PBS) for 3 hours. The anterior segment and lens were dissected, and the eyecups were incubated in 30% sucrose (in PBS) for 12 h at 4° C. Cryosection with DAPI. ocular cryosections were stained with DAPI, rhodopsin and cone arrestin for immunohistochemical analysis. Briefly, cryosections were incubated with antibodies against rhodopsin (Millipore, MABN15) and cone arrestin (Millipore, AB15282) both at 1:400 for 8 h at 4° C. and buffered with secondary antibodies both at 1:400 and DAPI (Sigma, D89542) 1:1000 for 1 hour. The sections were analyzed by fluorescent microscopy.
# rd10 mice [4] = test: Optokinetic response based on a modified Morris water maze; format: in vivo, mouse; conditions: daily ocular instillation for 16 days; spatial frequencies 0.01; 0.02; 0.17 and 0.35 cycles/degree
# Procedure: rd10 mice were treated by ocular instillation with phosphate buffered saline (PBS) containing the compound 35 of the invention for 16 days (from P14 to P29). To study optokinetic (OKT) response, we conducted an OKT test in combination with a modified Morris water maze using 9 rd10 mice at p30: 5 treated with compound 35 and 4 untreated. Animals were adapted to the experimental conditions for 1 week before behavioral testing. Mice were trained in a square pool (70×40 cm) filled with water (24-26-C), with all sides opaque, except the frontal side, where a screen was placed. The screen was divided vertically into 2 equal parts. A pattern of moving vertical bars was presented on one half of the screen, with the other half turned off. The direction of the bars was random: 50% of the time moving to the right and 50% of the time moving to the left. The bar velocity was constant throughout the process. Mice were trained for one week to associate the area of the screen with moving bars with the presence of a submerged platform, not visible to the mice under the dim light conditions, that was placed right next to that area of the screen. The platform allowed the mice to escape from the water. […] Contrast sensitivity values were measured, and the results of treated and untreated mice were compared.
# 661W cells = test: Prevention of 9-cis-Retinal and light-induced phototoxicity, impedance recording; format: cell-based; conditions: Mus musculus, light or radiation study, 20 μM 9-cis-Retinal, 30,000 luxes white light, impedance converted to percentage of cytolysis, read-out: EC50 of protection against phototoxicity
# Procedure: 661W cells were seeded onto 96-wells MEA impedance plates (50,000 cells/well) and grown until confluence in the Maestro Edge equipment (Axion Biosystems) at 37° C. and 5% CO2. When impedance reaches a plateau, phototoxicity is induced by addition of 20 μm 9-cis retinal and 30,000 luxes of white light. Increasing concentrations of compound 35 were added (A). Impedance was recorded every minute for 24 hours and was converted to percentage of cytolysis (B). 661 W cells were seeded in a 96-wells impedance plate (50,000 cells/well), previously coated with ECM 1:100, and grown O/N at 37° C. and 5% CO2 in DMEM/F-12 (Thermo Fisher, 11320033) supplemented with 40 μL/L hydrocortisone 21-hemisuccinate (Sigma, H-2270), 40 μL/L progesterone (Sigma, P-8783), 0.032 g/L putrescine (Sigma, P-7505), 40 μL/L β-mercaptoethanol (Sigma, M-6250), antibiotic-antimycotic solution (Sigma, A5955) and 10% fetal bovine serum (FBS). After 8 h, the medium was replaced by DMEM/F-12 without FBS or complements to remove cellular debris. When cells arrived at a plateau in the impedance recording (4-8 hours after the medium change, depending on the culture plate) compound 35 was added and two hours later the 9-cis-Retinal (Cf=20 μM) was added. The cells were placed in the Maestro Z and exposed to 30,000 white light luxes. to register the impedance.
# [5] = Retinal biodistribution after topical ocular administration, HPLC-MS of retina (mouse); format: in vivo; conditions: formulated with 0.2% hyaluronic acid vs PBS solution; 4 h after single ocular instillation
# Procedure: Ocular instillation with PBS solutions containing 0.2% hyaluronic acid (HA) and the selected compounds of the invention were administered: 17 μg/eye (3 μL of 20 mM solution per eye) in mouse; 65 μg/eye (10 μL of 17 mM solution per eye) in rat; and 559 μg/eye (50 μL of 40 mM solution per eye) in swine. Animals were sacrificed after 4 hours (mouse, rabbit and swine) or after 24 hours (rats) of treatment to determinate the availability of the compounds in the retina. Retinas were mechanically homogenized in physiological serum ([…]) and processed to analyze the compounds availability by HPLC-MS.
smiles,measurement,setting,value
"CC(C)c1ccc(S(=O)(=O)Cc2cn(CCN3CCOCC3)nn2)cc1 [Compound 70, 4-[(4-isopropylphenyl)sulfonylmethyl]-1-[2-(4-morpholinyl)ethyl]-1H,1,2,3-triazole]",retinal function measured by ERG activity,rd10 mice [1],increased retinal function
"[O-][S+](Cc1cn(CCN2CCCCC2)nn1)c1cccc(C(F)(F)F)c1 (stereo not shown) [Compound 56, 1-[2-(piperidin-1-yl)ethyl]-4-[(3-trifluoromethylphenyl)sulfinylmethyl]-1H-1,2,3-triazole]",retinal function measured by ERG activity,rd10 mice [1],increased retinal function
"[3H]c1c(CSc2ccc(OC)cc2)nnn1CCN(C)C [Compound 52, 1-[2-(N,N-dimethylamino)ethyl]-5-trithium-4-[(4-methoxyphenyl)thiomethyl]-1H-1,2,3-triazole]",time after administration up to which compound was detected in rat retina,[2],up to 24 h
same,time of peak concentration in rat retina,[2],around 8 h
"COc1ccc(SCc2cn(CCCNC(=N)NC(=N)N)nn2)cc1 [Compound 50, 1-[3-(biguanidinyl)propyl]-4-[(4-methoxyphenyl)thiomethyl]-1H-1,2,3-triazole]",retinal function measured by ERG activity,rd10 mice [1],increased retinal function
"COc1ccc(SCc2cn(CCN(C)C)nn2)cc1 [Compound 35, 1-[2-(N,N-dimethylamino)ethyl]-4-[(4-methoxyphenyl)thiomethyl]-1H-1,2,3-triazole]","preservation of photoreceptors (number of rods and cones per square mm, rod outer and inner segment)",rd10 mice [3],significant preservation of photoreceptors
same,"contrast sensitivity (visual acuity), treated vs untreated",rd10 mice [4],greatest differences were observed in the outlier values of spatial frequency
same,EC50,661W cells,30.5 nM
same,delivery percentage to the mouse retina (percentage of administered dose per gram of retina),[5],higher delivery percentage
same,cone function: recovery score vs. WT,rd10 mice [1]; 0.2 cd s/m^2 light intensity,78%
same,cone function: increase of ERG amplitude,"rd10 mice [1]; 0.2 cd s/m^2 light intensity, vs rd10 control group",66%
same,retinal function measured by ERG activity,rd10 mice [1],increased retinal function
"COc1ccc(OCc2cn(CCN(C)C)nn2)cc1 [Compound 1, 1-[2-(N,N-dimethylamino)ethyl]-4-[(4-methoxyphenoxy)methyl]-1H-1,2,3-triazole]",retinal function measured by ERG activity,rd10 mice [1],increased retinal function
